Data taken from the NIST ThermoML archive (doi:10.1016/j.jct.2015.05.024).

Experiment: xn = mol fraction of the nth substance listed
Conditions: 100 kPa, Liquid; for mass density: Vibrating tube method; for speed of sound: Frequency=5 MHz, Pulse-echo method

OCCOCCOCCO [triethylene glycol] + O
Conditions	mass density [kg/m3]	speed of sound [m/s]
303.15 K, x1 = 0.04979	1041.3	–
303.15 K, x1 = 0.06996	1054	–
303.15 K, x1 = 0.09424	1066.08	–
303.15 K, x1 = 0.1481	1084.03	–
303.15 K, x1 = 0.2006	1094.18	–
303.15 K, x1 = 0.2502	1100.12	–
303.15 K, x1 = 0.2988	1103.95	–
303.15 K, x1 = 0.3492	1106.7	–
303.15 K, x1 = 0.3925	1108.43	–
303.15 K, x1 = 0.4502	1110.16	–
303.15 K, x1 = 0.4877	1111.03	–
303.15 K, x1 = 0.5004	1111.29	–
303.15 K, x1 = 0.5739	1112.54	–
303.15 K, x1 = 0.58	1112.63	–
303.15 K, x1 = 0.6465	1113.45	–
303.15 K, x1 = 0.651	1113.5	–
303.15 K, x1 = 0.7008	1113.98	–
303.15 K, x1 = 0.7471	1114.36	–
303.15 K, x1 = 0.7677	1114.51	–
303.15 K, x1 = 0.82	1114.86	–
303.15 K, x1 = 0.8623	1115.11	–
303.15 K, x1 = 0.8792	1115.2	–
303.15 K, x1 = 0.8975	1115.3	–
303.15 K, x1 = 0.9203	1115.41	–
303.15 K, x1 = 0.9514	1115.57	–
303.15 K, x1 = 0.9692	1115.66	–
303.15 K, x1 = 1	1115.81	–
308.15 K, x1 = 0.000704	–	1522.8
308.15 K, x1 = 0.002176	–	1528.1
308.15 K, x1 = 0.005721	–	1540.6
308.15 K, x1 = 0.01035	–	1556
308.15 K, x1 = 0.0107	1005.7	–
308.15 K, x1 = 0.01513	–	1570.7
308.15 K, x1 = 0.02047	1015.27	–
308.15 K, x1 = 0.02389	–	1595
308.15 K, x1 = 0.03177	–	1614.1
308.15 K, x1 = 0.03972	1031.49	–
308.15 K, x1 = 0.0428	–	1637
308.15 K, x1 = 0.04979	1038.74	–
308.15 K, x1 = 0.05056	–	1650.6
308.15 K, x1 = 0.05793	–	1661.8
308.15 K, x1 = 0.06447	–	1670.6
308.15 K, x1 = 0.06996	1051.15	–
308.15 K, x1 = 0.07343	–	1680.8
308.15 K, x1 = 0.08342	–	1690
308.15 K, x1 = 0.09076	–	1695.5
308.15 K, x1 = 0.09424	1062.94	–
308.15 K, x1 = 0.1028	–	1702.6
308.15 K, x1 = 0.1137	–	1707.1
308.15 K, x1 = 0.1189	–	1708.7
308.15 K, x1 = 0.1229	–	1709.7
308.15 K, x1 = 0.1231	–	1709.7
308.15 K, x1 = 0.1269	–	1710.5
308.15 K, x1 = 0.1308	–	1711.1
308.15 K, x1 = 0.1403	–	1712.1
308.15 K, x1 = 0.1427	–	1712.2
308.15 K, x1 = 0.1481	1080.5	1712.3
308.15 K, x1 = 0.1594	–	1711.9
308.15 K, x1 = 0.1659	–	1711.3
308.15 K, x1 = 0.1738	–	1710.3
308.15 K, x1 = 0.1858	–	1708.3
308.15 K, x1 = 0.1969	–	1706
308.15 K, x1 = 0.2006	1090.47	–
308.15 K, x1 = 0.2172	–	1701
308.15 K, x1 = 0.2467	–	1692.8
308.15 K, x1 = 0.2502	1096.32	–
308.15 K, x1 = 0.2825	–	1682.6
308.15 K, x1 = 0.2988	1100.12	–
308.15 K, x1 = 0.3259	–	1670.8
308.15 K, x1 = 0.3492	1102.85	–
308.15 K, x1 = 0.3691	–	1660.3
308.15 K, x1 = 0.3925	1104.57	–
308.15 K, x1 = 0.4352	–	1646.2
308.15 K, x1 = 0.4502	1106.3	–
308.15 K, x1 = 0.4877	1107.17	–
308.15 K, x1 = 0.5004	1107.43	–
308.15 K, x1 = 0.5067	–	1632.7
308.15 K, x1 = 0.5739	1108.68	–
308.15 K, x1 = 0.58	1108.77	–
308.15 K, x1 = 0.6111	–	1615.9
308.15 K, x1 = 0.6465	1109.59	–
308.15 K, x1 = 0.651	1109.63	–
308.15 K, x1 = 0.7008	1110.12	–
308.15 K, x1 = 0.7471	1110.49	–
308.15 K, x1 = 0.7677	1110.64	–
308.15 K, x1 = 0.7783	–	1598.5
308.15 K, x1 = 0.82	1110.99	–
308.15 K, x1 = 0.8623	1111.23	–
308.15 K, x1 = 0.8792	1111.32	–
308.15 K, x1 = 0.8912	–	1591.9
308.15 K, x1 = 0.8975	1111.42	–
308.15 K, x1 = 0.9203	1111.54	–
308.15 K, x1 = 0.9514	1111.69	–
308.15 K, x1 = 0.9608	–	1587.5
308.15 K, x1 = 0.9692	1111.78	–
308.15 K, x1 = 1	1111.92	1584.6
313.15 K, x1 = 0.00059	–	1530.8
313.15 K, x1 = 0.002696	–	1537.9
313.15 K, x1 = 0.006871	–	1551.2
313.15 K, x1 = 0.01006	–	1560.8
313.15 K, x1 = 0.0107	1003.69	–
313.15 K, x1 = 0.01494	–	1574.7
313.15 K, x1 = 0.02047	1013.09	–
313.15 K, x1 = 0.02274	–	1594.6
313.15 K, x1 = 0.02979	–	1610.7
313.15 K, x1 = 0.03584	–	1623
313.15 K, x1 = 0.03972	1028.97	–
313.15 K, x1 = 0.04219	–	1634.6
313.15 K, x1 = 0.04979	1036.07	–
313.15 K, x1 = 0.05045	–	1647.8
313.15 K, x1 = 0.05689	–	1656.8
313.15 K, x1 = 0.06687	–	1668.7
313.15 K, x1 = 0.06996	1048.19	–
313.15 K, x1 = 0.07692	–	1678.3
313.15 K, x1 = 0.08288	–	1683
313.15 K, x1 = 0.09135	–	1688.6
313.15 K, x1 = 0.09262	–	1689.3
313.15 K, x1 = 0.09424	1059.72	–
313.15 K, x1 = 0.1004	–	1693.3
313.15 K, x1 = 0.1079	–	1696.2
313.15 K, x1 = 0.116	–	1698.7
313.15 K, x1 = 0.1201	–	1699.6
313.15 K, x1 = 0.1232	–	1700.2
313.15 K, x1 = 0.1303	–	1701.1
313.15 K, x1 = 0.1343	–	1701.5
313.15 K, x1 = 0.1377	–	1701.6
313.15 K, x1 = 0.1423	–	1701.7
313.15 K, x1 = 0.1481	1076.91	–
313.15 K, x1 = 0.1573	–	1701
313.15 K, x1 = 0.1723	–	1699
313.15 K, x1 = 0.1866	–	1696.2
313.15 K, x1 = 0.2006	1086.71	–
313.15 K, x1 = 0.2037	–	1692.2
313.15 K, x1 = 0.2426	–	1681.2
313.15 K, x1 = 0.2502	1092.5	–
313.15 K, x1 = 0.2794	–	1670.3
313.15 K, x1 = 0.2988	1096.26	–
313.15 K, x1 = 0.3209	–	1658.6
313.15 K, x1 = 0.3492	1098.98	–
313.15 K, x1 = 0.3925	1100.7	–
313.15 K, x1 = 0.403	–	1638.8
313.15 K, x1 = 0.4502	1102.42	–
313.15 K, x1 = 0.4658	–	1626
313.15 K, x1 = 0.4877	1103.29	–
313.15 K, x1 = 0.5004	1103.55	–
313.15 K, x1 = 0.5676	–	1608
313.15 K, x1 = 0.5739	1104.8	–
313.15 K, x1 = 0.58	1104.89	–
313.15 K, x1 = 0.6465	1105.71	–
313.15 K, x1 = 0.651	1105.76	–
313.15 K, x1 = 0.6969	–	1590.8
313.15 K, x1 = 0.7008	1106.24	–
313.15 K, x1 = 0.7471	1106.61	–
313.15 K, x1 = 0.7677	1106.76	–
313.15 K, x1 = 0.82	1107.11	–
313.15 K, x1 = 0.8623	1107.35	–
313.15 K, x1 = 0.8694	–	1577.9
313.15 K, x1 = 0.8792	1107.44	–
313.15 K, x1 = 0.9455	–	1572.9
313.15 K, x1 = 1	–	1569.1
